Patent US11167007B2, “FOXM1 modulators and uses thereof” (City of Hope, priority 2016, dated 2021)

System: AR activity in spinal cord
Test: RT-qPCR of androgen-regulated transcripts in spinal cord
Format: in vivo, rat
Conditions: rats, compared to control treatment, FIG. 5F
Experimental: Animals and Drugs. This study was carried out in strict accordance with the recommendations in the Guide for the Care and Use of Laboratory Animals of the National Institutes of Health. All experiments were performed under the IUCAC approval of City of Hope. Animals were purchased from Jackson Laboratory (Bar Harbor, Main). For the pilot pharmacokinetic experiment, nine male Sprague Dawley rats (n=3) were administered 1, 10, or 100 mg/kg intraperitoneal injections thrice per week for four weeks. One hour following the final dose, blood and spinal fluid were collected and analyzed by mass spectrometry. For the efficacy experiment, rats were divided into 3 groups (n=7) as follows: intact, castrated, and thiostrepton. […] Following a treatment period of 7 days, rats were euthanized and organs harvested, weighed and processed for quantitative RT-PCR.
qRT-PCR. The quantitative RT-PCR method has been described by Jones et al, ACS Chem Biol, 3(7):412-8 (2008). […] Differences between experimental (x) and control (y) samples were normalized to RPL19 transcript levels (androgen unresponsive) and determined with the following calculation: (2^(Ctsgene1-Ctygene1))/(2^(CtxRPL19-CtyRPL19)) One-way analysis of variance was applied to determine statistical significant among groups, where p<0.05 was considered significant. […]

C=C(NC(=O)C(=C)NC(=O)c1csc(C2=N[C@@H]3c4csc(n4)[C@H]4NC(=O)c5csc(n5)[C@H]([C@](C)(O)[C@@H](C)O)NC(=O)[C@H]5CSC(=N5)/C(=C/C)NC(=O)[C@H]([C@@H](C)O)NC(=O)c5csc(n5)[C@]3(CC2)NC(=O)[C@H](C)NC(=O)C(=C)NC(=O)[C@H](C)NC(=O)[C@H]([C@@H](C)CC)N[C@@H]2C=Cc3c([C@H](C)O)cc(nc3[C@H]2O)C(=O)O[C@@H]4C)n1)C(N)=O [thiostrepton]
androgen-dependent gene transcript levels in spinal cord: decreases in three androgen-dependent genes
